Source: publication PMC6382696, “Drug Repurposing: The Anthelmintics Niclosamide and Nitazoxanide Are Potent TMEM16A Antagonists That Fully Bronchodilate Airways” (Frontiers in Pharmacology, 2019)
Where “and” joins values, the source holds several entries; their conditions need not be identical. Equal entries are not always repeated. Where two headings read alike, the source gives them in different places.

Columns and labels:
human CFTR = molecular target: T1, human CFTR (Homo sapiens, UniProt P13569); assay: IonWorks Barracuda electrophysiology, CFTR chloride current in CHO cells; type: cell-based; conditions: for effect on CFTR chloride current: 10 µM compound, CHO CFTR
T1 construct: host or cells: CHO
T1 sequence (P13569 whole entry): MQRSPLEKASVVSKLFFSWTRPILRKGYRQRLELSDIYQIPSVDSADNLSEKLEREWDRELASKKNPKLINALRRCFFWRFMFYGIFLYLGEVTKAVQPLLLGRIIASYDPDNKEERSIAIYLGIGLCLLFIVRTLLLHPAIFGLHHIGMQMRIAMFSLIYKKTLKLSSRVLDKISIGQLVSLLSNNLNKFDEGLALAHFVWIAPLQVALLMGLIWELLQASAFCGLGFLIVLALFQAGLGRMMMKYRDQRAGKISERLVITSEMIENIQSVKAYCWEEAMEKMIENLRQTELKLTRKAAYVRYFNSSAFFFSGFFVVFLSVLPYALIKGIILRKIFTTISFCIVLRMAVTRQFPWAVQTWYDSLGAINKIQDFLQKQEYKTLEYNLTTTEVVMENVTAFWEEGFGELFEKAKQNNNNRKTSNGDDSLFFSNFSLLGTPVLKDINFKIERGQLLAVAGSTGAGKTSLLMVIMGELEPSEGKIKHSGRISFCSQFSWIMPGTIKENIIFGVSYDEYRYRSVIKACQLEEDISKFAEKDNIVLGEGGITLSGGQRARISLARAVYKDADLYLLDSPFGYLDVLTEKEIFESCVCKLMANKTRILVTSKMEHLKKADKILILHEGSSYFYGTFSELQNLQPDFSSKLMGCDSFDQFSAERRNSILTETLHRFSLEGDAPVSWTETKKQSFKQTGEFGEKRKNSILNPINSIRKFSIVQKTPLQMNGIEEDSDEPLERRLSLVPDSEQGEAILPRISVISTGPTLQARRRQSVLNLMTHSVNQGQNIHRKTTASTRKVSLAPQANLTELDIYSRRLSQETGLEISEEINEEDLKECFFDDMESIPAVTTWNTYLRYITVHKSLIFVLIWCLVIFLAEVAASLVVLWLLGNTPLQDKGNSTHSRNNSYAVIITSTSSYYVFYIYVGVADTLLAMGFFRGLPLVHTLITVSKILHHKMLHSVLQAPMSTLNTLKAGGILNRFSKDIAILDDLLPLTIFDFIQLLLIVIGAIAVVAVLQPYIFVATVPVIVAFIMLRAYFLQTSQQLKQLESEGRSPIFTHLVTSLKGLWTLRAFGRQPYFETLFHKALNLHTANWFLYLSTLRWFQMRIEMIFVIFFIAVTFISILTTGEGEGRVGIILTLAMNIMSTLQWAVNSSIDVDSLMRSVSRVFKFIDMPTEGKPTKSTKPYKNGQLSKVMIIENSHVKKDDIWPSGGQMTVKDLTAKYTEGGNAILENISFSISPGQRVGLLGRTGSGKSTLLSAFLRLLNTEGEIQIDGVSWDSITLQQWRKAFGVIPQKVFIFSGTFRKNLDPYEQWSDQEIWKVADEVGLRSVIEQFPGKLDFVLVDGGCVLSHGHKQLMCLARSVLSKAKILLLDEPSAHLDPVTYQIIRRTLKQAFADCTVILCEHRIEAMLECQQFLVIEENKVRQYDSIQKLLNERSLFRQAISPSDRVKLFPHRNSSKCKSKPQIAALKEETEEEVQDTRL
From the text: HEK293 cells stably expressing the human TMEM16A (abc) variant and CHO cells expressing the human CFTR gene were from ChanTest. The IonWorks Barracuda (IWB) procedure and data provided are from outsourced studies performed at ChanTest (Charles River Discovery, Cleveland, OH, United States) who were blinded as to the identity of the test articles or compounds provided by Amgen.
For measuring compound effects on CFTR chloride currents, compounds were serially diluted in HEPES-buffered physiological saline to 2X final concentration allowing for an 8-point dose-response analysis. Test article concentrations were applied to naïve cells (n = 4, where n = the number of replicate wells/concentration) via steel needles, where each application will consist of addition of 20 μl of 2X concentrated test article solution to a final 40 μl volume in the extracellular well of the Population Patch ClampTM (PPC) planar electrode. After mixing (three times), duration of exposure to compound is at least 5 min. Final solutions contain 0.3% DMSO. […] The current is measured using a pulse pattern consisting of a voltage step to +60 mV, 100 ms duration; voltage ramp from +60 to −120 mV, 1000 ms; step to −120 mV, 200 ms; and step to 0 mV, 200 ms; from holding potential, −30 mV. Current amplitudes were measured at the voltage step to 0 mV. The recording procedure was as follows: extracellular buffer is loaded into the PPC plate wells (11 μl per well). Cell suspension was pipetted into the wells (9 μl per well) of the PPC planar electrode. After establishment of a whole-cell configuration via amphotericin patch perforation similar to that described earlier, membrane currents were recorded using the patch clamp amplifier in the IonWorks^TM Barracuda system. Two recordings (scans) were then performed, one scan before and a second scan 5 min after test article (TA) application. […] Data acquisition and analyses were performed using the IonWorks Barracuda^TM system operation software (version 2.0.2). The decrease in current amplitude after test article application was used to calculate the percent block relative to control. […] Inhibition effect was calculated as: % Inhibition = (1 – ITA/IBaseline) × 100%, where IBaseline and ITA were the currents measured in control (before addition of a test article) and in the presence of a test article, respectively.

human bronchial rings [1] = assay: Wire myograph bronchodilation of carbachol pre-contracted human bronchial rings (Amgen)
Description: Bronchodilator studies using human bronchial rings (Figure 5E–G and Supplementary Figure 38) used the same instruments and reagents described earlier for studies on mouse tracheal rings.
Non-transplantable human lungs were obtained through the International Institute for the Advancement of Medicine, IIAM (Edison, NJ, United States) from non-smoking donors who had been ventilated for <3 days with acceptable blood gasses and used within 24 h of cross-clamp time.
Human 4th order bronchial rings were isolated, sliced into 2 mm long rings and then mounted individually in chambers of wire myographs containing 6 ml room temperature PSS per chamber. […] Bronchial rings are allowed to equilibrate in PSS while chambers are warmed to 37°C. […] The rings were then equilibrated for additional 40–60 min, changing buffer every 15–20 min. Tension was adjusted if it dropped below 9.8 mN. Airway rings were “woken up” by exposing to pre-warmed, aerated KPSS and allowing rings to reach plateau of constriction, followed by washing rings four times with PSS. This procedure was repeated two additional times.
Airway contraction response was then assessed by treating with increasing doses of the contractant, carbachol (10 nM to 10 μM), waiting for response plateaus (at least 5 min between additions).
At the end of each CCRC, rings were fully relaxed by addition of 2.2 mM theophylline. One hundred percent contraction was calculated by subtracting the stable tension remaining in the airway ring after theophylline addition from the tension achieved after addition of EC75 carbachol while 100% relaxation is the net tension remaining after theophylline addition. Dose response curves and EC50 values for bronchodilation were determined in GraphPad Prism.

mouse tracheal rings = assay: Bronchodilation of mouse tracheal rings at differing levels of carbachol pre-contraction; conditions: EC95 level of carbachol, normalized to theophylline
Description: Standard procedures as listed above were used to prepare, mount and Wake-Up tracheal rings and the concentrations of carbachol providing EC25, EC50, EC75, or EC95 levels of contraction for each ring was determined as described above.

human bronchial rings [2] = assay: Wire myograph bronchodilation of histamine pre-contracted human bronchial rings (Biopta)
From the text: Details of bronchodilator studies shown in Figure 5H, 6 and Supplementary Figure 40 are provided below as part of the end assay report on Study CUR011 by Lee Christie (Biopta). Donors with any of the following conditions were excluded from the study: asthma, COPD, emphysema, lung cancer, cystic fibrosis, pulmonary fibrosis, pulmonary hypertension, pneumonia. Donors were also excluded if they had smoked in the past 12 months. Non-transplantable lung tissue was acquired from organ donors post mortem. Any macroscopically diseased/necrotic tissue was rejected. […] Human airway rings were set up under isometric conditions on a wire myograph in order to examine the influence of the test articles on bronchodilation. In order to assess tissue viability, the airways were challenged with carbachol (10 μM) and then isoprenaline (10 μM) to assess their constriction and relaxation responses, respectively. […] Viable airways were pre-constricted with histamine (10 μM), then exposed to one of the following cumulative concentration response curves (CCRCs): positive control, vehicle (water, volume matched to positive control), test article, vehicle (DMSO concentration matched to test articles). At the end of each CCRC, theophylline (2.2 mM) was added to induce maximal relaxation of the tissue. […] Airways were re-tensioned to 1.0 – 1.5 g if the tension had dropped below 1.0 g during the first 30 min of equilibration. (b) Airways were exposed to carbachol (bath concentration 10 μM) in order to measure their contractile responses and then isoprenaline (10 μM) in order to assess their relaxation. Airways were washed out and allowed to return to baseline. (c) Airways were pre-constricted with histamine (10 μM) before conducting a CCRC to the test article, the positive control (isoprenaline), test article vehicle or positive control vehicle.

[3] = 20 μM forskolin, IonWorks Barracuda, read-out: CFTR Chloride Current (IC50)
[4] = Homo sapiens, EC75 carbachol, 4th order bronchi, 5 μM indomethacin, read-out: EC50 relaxing carbachol precontracted human bronchial rings
[5] = Homo sapiens, supplement, 5 M indomethacin (so in the source), read-out: EC50 relaxation of carbachol pre-contracted human bronchial rings
[6] = Homo sapiens, 10 μM histamine, read-out: EC50 bronchodilating histamine precontracted human airways
[7] = histamine pre-contracted, 10 μM

## N#Cc1c(C(F)(F)F)cc(O)n2c1nc1ccccc12 [1PBC]
Human CFTR; [3]
  IC50: > 30 µM
Human CFTR; IonWorks Barracuda
  effect on cAMP-induced CFTR chloride current: inactive
Human bronchial rings [1]; [4]
  EC50: 0.91 ± 0.2 µM
Human bronchial rings [1]; [5]
  EC50: 0.761 µM

## CCc1oc2ccccc2c1C(=O)c1cc(Br)c(O)c(Br)c1 [Benzbromarone]
Mouse tracheal rings
  relaxation of airway rings: roughly 100%
Human bronchial rings [2]; [6]
  EC50: 5.65 µM
Human bronchial rings [2]; [7]
  time to steady-state relaxation of human bronchial rings: 80 to 140 min
Human CFTR
  IC50: 5.2 µM
Human CFTR; IonWorks Barracuda
  effect on cAMP-induced CFTR chloride current: reduced
Human bronchial rings [1]; [4]
  EC50: 2.08 ± 1.95 µM
Human bronchial rings [1]; [5]
  EC50: 3.45 µM

## CC(C)(C)C1CCc2c(sc(NC(=O)c3ccco3)c2C(=O)O)C1 (stereo not shown) [CaCCinh-A01]
Human CFTR; [3]
  IC50: 10.1 µM
Human CFTR; IonWorks Barracuda
  effect on cAMP-induced CFTR chloride current: reduced
Human bronchial rings [1]; [4]
  EC50: 9.24 µM

## O=C(Nc1ccc([N+](=O)[O-])cc1)c1cc(Cl)ccc1O [Cpd 2]
Human CFTR
  percent of inhibition (POI) of the forskolin-induced CFTR current: < 20%
Human CFTR; IonWorks Barracuda
  effect on cAMP-induced CFTR chloride current: inactive

## COc1cc([N+](=O)[O-])ccc1NC(=O)c1cc(Cl)c2ccccc2c1O [Cpd 4]
Mouse tracheal rings
  relaxation of airway rings: roughly 100%
Human bronchial rings [2]; [6]
  EC50: 3.45 µM
Human bronchial rings [2]; [7]
  time to steady-state relaxation of human bronchial rings: 50 − 125 min
Human bronchial rings [2]; histamine pre-contracted, Donor 1 Ring 1, Donor 1 Ring 2, Donor 2 Ring 1, read-out: EC50 relaxation of human bronchial rings, individual rings
  EC50: ~1.75 µM and ~6.3 µM and 3 µM
Human CFTR
  percent of inhibition (POI) of the forskolin-induced CFTR current: < 20%
  effect on CFTR chloride current: no significant effects
Human CFTR; [3]
  IC50: > 30 µM
Human CFTR; IonWorks Barracuda
  effect on cAMP-induced CFTR chloride current: inactive
Human bronchial rings [1]; [4]
  EC50: 1.61 µM

## Oc1ccc(Cl)cc1Cc1cc(Cl)ccc1O [Dichlorophen]
Human bronchial rings [1]; EC75 carbachol, 4th order bronchi, 5 μM indomethacin, read-out: EC50 relaxing carbachol precontracted human bronchial rings
  EC50: 10.6 ± 12 µM
Human bronchial rings [1]; [4]
  EC50: 19.1 µM

## COc1cc(Nc2ccc([N+](=O)[O-])cc2C(=O)O)cc2ccccc12 [MONNA]
Human CFTR; [3]
  IC50: 19 µM
Human CFTR; IonWorks Barracuda
  effect on cAMP-induced CFTR chloride current: reduced

## O=C(Nc1ccc([N+](=O)[O-])cc1Cl)c1cc(Cl)ccc1O [Niclosamide]
Mouse tracheal rings
  relaxation of airway rings: roughly 100%
Human bronchial rings [2]; 10 μM histamine, read-out: EC50 bronchodilating histamine precontracted human airways
  EC50: 0.967 µM
Human bronchial rings [2]; [6]
  EC50: 0.97 µM
Human bronchial rings [2]; histamine pre-contracted, 1 μM
  time to steady-state relaxation of human bronchial rings: ~92 min
Human bronchial rings [2]; [7]
  time to steady-state relaxation of human bronchial rings: ~50 min
Human CFTR
  percent of inhibition (POI) of the forskolin-induced CFTR current: < 20%
  effect on CFTR chloride current: no significant effects
Human CFTR; [3]
  IC50: > 30 µM
Human CFTR; IonWorks Barracuda
  effect on cAMP-induced CFTR chloride current: inactive
Human bronchial rings [1]; [4]
  EC50: 0.73 µM

## O=C(O)c1cccnc1Nc1cccc(C(F)(F)F)c1 [Niflumic Acid]
Human CFTR; [3]
  IC50: > 30 µM
Human bronchial rings [1]; [4]
  EC50: 14.4 ± 0.76 µM
Human bronchial rings [1]; [5]
  EC50: 14.9 µM

## CCc1c(C)nc(SCC(=O)Nc2nc(-c3ccc(OC)cc3)cs2)[nH]c1=O [T16Ainh-A01]
Human CFTR; [3]
  IC50: > 30 µM
